Test results from PubChem BioAssay AID1963831 (Molecular Pharmacology Branch, DTP, NCI, 2024).

Tested on: 889142-216-R-J1-PDC complex spheroid viability
Experiment: Anticancer human tumor 889142-216-R-J1-PDC patient-derived bladder carcinoma cell line growth inhibition [POLQ]
Conditions: for IC50: curve of first compound; for viability, T/C: stronger effect = lower value
How it was run: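 PDC + HUVEC + MSC complex spheroids; POLQ inhibitors ± partner drugs; top conc. at/near clinical Cmax, else 10 microM (SN-38 1 microM), half-log dilutions; 37 degrees C, 5% CO2.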

[1] = second compound 0.0316 µM, first compound 0.0316 µM
[2] = second compound 0.0316 µM, first compound 0.1 µM
[3] = second compound 0.0316 µM, first compound 0.316 µM
[4] = second compound 0.0316 µM, first compound 1 µM
[5] = second compound 0.0316 µM, first compound 3.16 µM
[6] = second compound 0.0316 µM, first compound 10 µM
[7] = second compound 0.1 µM, first compound 0.0316 µM
[8] = second compound 0.1 µM, first compound 0.1 µM
[9] = second compound 0.1 µM, first compound 0.316 µM
[10] = second compound 0.1 µM, first compound 1 µM
[11] = second compound 0.1 µM, first compound 3.16 µM
[12] = second compound 0.1 µM, first compound 10 µM
[13] = second compound 0.316 µM, first compound 0.0316 µM
[14] = second compound 0.316 µM, first compound 0.1 µM
[15] = second compound 0.316 µM, first compound 0.316 µM
[16] = second compound 0.316 µM, first compound 1 µM
[17] = second compound 0.316 µM, first compound 3.16 µM
[18] = second compound 0.316 µM, first compound 10 µM
[19] = second compound 1 µM, first compound 0.0316 µM
[20] = second compound 1 µM, first compound 0.1 µM
[21] = second compound 1 µM, first compound 0.316 µM
[22] = second compound 1 µM, first compound 1 µM
[23] = second compound 1 µM, first compound 3.16 µM
[24] = second compound 1 µM, first compound 10 µM
[25] = second compound 3.16 µM, first compound 0.0316 µM
[26] = second compound 3.16 µM, first compound 0.1 µM
[27] = second compound 3.16 µM, first compound 0.316 µM
[28] = second compound 3.16 µM, first compound 1 µM
[29] = second compound 3.16 µM, first compound 3.16 µM
[30] = second compound 3.16 µM, first compound 10 µM
[31] = second compound 10 µM, first compound 0.0316 µM
[32] = second compound 10 µM, first compound 0.1 µM
[33] = second compound 10 µM, first compound 0.316 µM
[34] = second compound 10 µM, first compound 1 µM
[35] = second compound 10 µM, first compound 3.16 µM
[36] = second compound 10 µM, first compound 10 µM
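Note: spheroids exposed to compounds for seven days.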
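Throughout, for viability, T/C: 100% = DMSO vehicle control viability.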

Work on `CNCc1ccc(-c2[nH]c3cc(F)cc4c3c2CCNC4=O)cc1` + Nc1ccc(C#CCN(C(=O)Cc2ncc(C(F)(F)F)cc2C(F)(F)F)c2ccc(F)cc2)nn1 yielded an IC50 (second compound 0.0316 µM) of over 10 µM, an IC50 (second compound 0.1 µM) of over 10 µM and an IC50 (second compound 0.316 µM) of over 10 µM. The IC50 (second compound 1 µM) was over 10 µM, the IC50 (second compound 3.16 µM) was over 10 µM and the IC50 (second compound 10 µM) was over 10 µM. It also gave a viability, T/C [1] of 109%, a viability, T/C [2] of 115% and a viability, T/C [3] of 123%. The viability, T/C [4] was 108%, the viability, T/C [5] was 74.8% and the viability, T/C [6] was 84.5%. It also gave a viability, T/C [7] of 133%, a viability, T/C [8] of 93% and a viability, T/C [9] of 104%. It also gave a viability, T/C [10] of 96.3%, a viability, T/C [11] of 107% and a viability, T/C [12] of 83.9%. For the same compound, the viability, T/C [13] was 144%, the viability, T/C [14] was 82.9% and the viability, T/C [15] was 78.2%. For the same compound, the viability, T/C [16] was 78.2%, the viability, T/C [17] was 81.2% and the viability, T/C [18] was 82.8%. It also gave a viability, T/C [19] of 128%, a viability, T/C [20] of 83.3% and a viability, T/C [21] of 99.3%. For the same compound, the viability, T/C [22] was 88.2%, the viability, T/C [23] was 92.3% and the viability, T/C [24] was 75.5%. The viability, T/C [25] was 116%, the viability, T/C [26] was 96.1% and the viability, T/C [27] was 134%. For the same compound, the viability, T/C [28] was 122%, the viability, T/C [29] was 106% and the viability, T/C [30] was 81.4%. It also gave a viability, T/C [31] of 125%, a viability, T/C [32] of 98.4% and a viability, T/C [33] of 104%. For the same compound, the viability, T/C [34] was 129%, the viability, T/C [35] was 108% and the viability, T/C [36] was 96.8%.

`O=C(c1cc(Cc2n[nH]c(=O)c3ccccc23)ccc1F)N1CCN(C(=O)C2CC2)CC1` + Nc1ccc(C#CCN(C(=O)Cc2ncc(C(F)(F)F)cc2C(F)(F)F)c2ccc(F)cc2)nn1 showed an IC50 (second compound 0.0316 µM) of over 10 µM, an IC50 (second compound 0.1 µM) of over 10 µM and an IC50 (second compound 0.316 µM) of over 10 µM. The IC50 (second compound 1 µM) was over 10 µM, the IC50 (second compound 3.16 µM) was over 10 µM and the IC50 (second compound 10 µM) was over 10 µM. The viability, T/C [1] was 94%, the viability, T/C [2] was 93% and the viability, T/C [3] was 66.3%. It also gave a viability, T/C [4] of 118%, a viability, T/C [5] of 80.1% and a viability, T/C [6] of 73.5%. The viability, T/C [7] was 95.3%, the viability, T/C [8] was 112% and the viability, T/C [9] was 83.7%. The viability, T/C [10] was 97.5%, the viability, T/C [11] was 79.5% and the viability, T/C [12] was 66.6%. The viability, T/C [13] was 110%, the viability, T/C [14] was 115% and the viability, T/C [15] was 85.2%. It also gave a viability, T/C [16] of 104%, a viability, T/C [17] of 97.5% and a viability, T/C [18] of 59.7%. It also gave a viability, T/C [19] of 152%, a viability, T/C [20] of 113% and a viability, T/C [21] of 94.8%. It also gave a viability, T/C [22] of 102%, a viability, T/C [23] of 85.2% and a viability, T/C [24] of 67.6%. For the same compound, the viability, T/C [25] was 104%, the viability, T/C [26] was 92.4% and the viability, T/C [27] was 90.1%. It also gave a viability, T/C [28] of 98.2%, a viability, T/C [29] of 95.1% and a viability, T/C [30] of 62.8%. It also gave a viability, T/C [31] of 111%, a viability, T/C [32] of 110% and a viability, T/C [33] of 97.5%. For the same compound, the viability, T/C [34] was 90.9%, the viability, T/C [35] was 76.3% and the viability, T/C [36] was 86.2%.
